Our source for the IC50 values is article PMC7143538, “New Thiodiketopiperazine and 3,4-Dihydroisocoumarin Derivatives from the Marine-Derived Fungus Aspergillus terreus” (Marine Drugs, 2020).

The assay addresses T1, protein tyrosine phosphatase 1 B (PTP1B) (Homo sapiens, UniProt P18031).
T1 construct: gene PTPN1
T1 sequence (P18031 1-435): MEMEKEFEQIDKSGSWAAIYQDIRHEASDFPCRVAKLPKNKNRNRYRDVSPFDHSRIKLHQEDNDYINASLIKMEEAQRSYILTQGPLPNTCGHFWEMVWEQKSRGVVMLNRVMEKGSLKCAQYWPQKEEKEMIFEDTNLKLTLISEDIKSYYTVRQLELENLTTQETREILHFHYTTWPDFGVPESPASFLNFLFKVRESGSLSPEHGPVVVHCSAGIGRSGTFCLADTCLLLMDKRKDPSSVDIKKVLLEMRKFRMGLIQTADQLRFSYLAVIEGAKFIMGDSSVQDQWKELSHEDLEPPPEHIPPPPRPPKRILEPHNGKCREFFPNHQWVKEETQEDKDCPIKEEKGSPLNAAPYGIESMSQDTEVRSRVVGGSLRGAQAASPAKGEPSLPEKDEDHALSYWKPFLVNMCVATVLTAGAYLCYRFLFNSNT
Put plainly: pNPP phosphatase assay, human recombinant PTP1B, absorbance at […] nm. The assay is classed as biochemical.
The term IC50 denotes the concentration that gives 50% inhibition. `CS[C@@]1(Cc2ccccc2)NC(=O)[C@@](Cc2ccccc2O)(SC)NC1=O` [compound 3, emethacin C]: the IC50 amounted to 12.3 µM. Then `CS[C@@]12CC3=CC=C[C@H](OC(C)=O)[C@H]3N1C(=O)[C@]1(SC)CC3=COC=C[C@H](OC(C)=O)[C@H]3N1C2=O` [compound 5, bisdethiobis(methylsulfanyl)acetylapoaranotin], with 25.7 µM; and `CS[C@@]12CC3=COC=C[C@H](OC(C)=O)[C@H]3N1C[C@]1(SC)CC3=COC=C[C@H](O)[C@H]3N1C2` [compound 7, alternarosin A], with 24.3 µM.
